Assay results from ChEMBL document CHEMBL4020788, “Synthesis, SAR and molecular docking studies of benzo[d]thiazole-hydrazones as potential antibacterial and antifungal agents” (2017).
Calls of active or inactive are those of the source. No cut-off for these calls is given here.

Experiments:
Assay type in all cases: functional
Staphylococcus aureus [1] = assay: Antibacterial activity against methicillin resistant Staphylococcus aureus MRSA090 at 75 ug/ml after 24 hrs by agar well diffusion method; details: for zone of inhibition at 75 µg/mL: MRSA090, 24 h, read-out: DIZ
Staphylococcus aureus [2] = assay: Antibacterial activity against methicillin resistant Staphylococcus aureus MRSA090 at 50 ug/ml after 24 hrs by agar well diffusion method; details: for zone of inhibition at 50 µg/mL: MRSA090, 24 h, read-out: DIZ
Fusarium verticillioides [3] = assay: Antifungal activity against Fusarium moniliforme at 100 ug/ml after 48 hrs by agar well diffusion method; details: for zone of inhibition at 100 µg/mL: read-out: DIZ
Klebsiella pneumoniae [4] = assay: Antibacterial activity against Klebsiella pneumoniae at 75 ug/ml after 24 hrs by agar well diffusion method; details: for zone of inhibition at 75 µg/mL: read-out: DIZ
Bacillus subtilis [5] = assay: Antibacterial activity against Bacillus subtilis at 75 ug/ml after 24 hrs by agar well diffusion method
Aspergillus niger [6] = assay: Antifungal activity against Aspergillus niger at 50 ug/ml after 48 hrs by agar well diffusion method
Staphylococcus aureus [7] = assay: Antibacterial activity against methicillin resistant Staphylococcus aureus MRSA090 at 25 ug/ml after 24 hrs by agar well diffusion method; details: for zone of inhibition at 25 µg/mL: MRSA090, 24 h, read-out: DIZ
Aspergillus niger [8] = assay: Antifungal activity against Aspergillus niger at 75 ug/ml after 48 hrs by agar well diffusion method
Staphylococcus aureus [9] = assay: Antibacterial activity against Staphylococcus aureus at 100 ug/ml after 24 hrs by agar well diffusion method
Fusarium oxysporum [10] = assay: Antifungal activity against Fusarium oxysporum at 75 ug/ml after 48 hrs by agar well diffusion method; details: for zone of inhibition at 75 µg/mL: read-out: DIZ
Klebsiella pneumoniae [11] = assay: Antibacterial activity against Klebsiella pneumoniae at 25 ug/ml after 24 hrs by agar well diffusion method; details: for zone of inhibition at 25 µg/mL: read-out: DIZ
Escherichia coli [12] = assay: Antibacterial activity against Escherichia coli at 75 ug/ml after 24 hrs by agar well diffusion method; details: for zone of inhibition at 75 µg/mL: read-out: DIZ
Bacillus subtilis [13] = assay: Antibacterial activity against Bacillus subtilis at 50 ug/ml after 24 hrs by agar well diffusion method
Aspergillus niger [14] = assay: Antifungal activity against Aspergillus niger at 100 ug/ml after 48 hrs by agar well diffusion method
Bacillus subtilis [15] = assay: Antibacterial activity against Bacillus subtilis at 100 ug/ml after 24 hrs by agar well diffusion method
Staphylococcus aureus [16] = assay: Antibacterial activity against Staphylococcus aureus at 25 ug/ml after 24 hrs by agar well diffusion method
Fusarium oxysporum [17] = assay: Antifungal activity against Fusarium oxysporum at 25 ug/ml after 48 hrs by agar well diffusion method
Escherichia coli [18] = assay: Antibacterial activity against Escherichia coli at 50 ug/ml after 24 hrs by agar well diffusion method; details: for zone of inhibition at 50 µg/mL: read-out: DIZ
Klebsiella pneumoniae [19] = assay: Antibacterial activity against Klebsiella pneumoniae at 50 ug/ml after 24 hrs by agar well diffusion method; details: for zone of inhibition at 50 µg/mL: read-out: DIZ
Bacillus subtilis [20] = assay: Antibacterial activity against Bacillus subtilis at 25 ug/ml after 24 hrs by agar well diffusion method
Fusarium oxysporum [21] = assay: Antifungal activity against Fusarium oxysporum at 100 ug/ml after 48 hrs by agar well diffusion method; details: for zone of inhibition at 100 µg/mL: read-out: DIZ
Fusarium oxysporum [22] = assay: Antifungal activity against Fusarium oxysporum at 50 ug/ml after 48 hrs by agar well diffusion method
Staphylococcus aureus [23] = assay: Antibacterial activity against Staphylococcus aureus at 75 ug/ml after 24 hrs by agar well diffusion method
Aspergillus niger [24] = assay: Antifungal activity against Aspergillus niger at 25 ug/ml after 48 hrs by agar well diffusion method
Escherichia coli [25] = assay: Antibacterial activity against Escherichia coli at 25 ug/ml after 24 hrs by agar well diffusion method; details: for zone of inhibition at 25 µg/mL: read-out: DIZ
Fusarium verticillioides [26] = assay: Antifungal activity against Fusarium moniliforme at 25 ug/ml after 48 hrs by agar well diffusion method; details: for zone of inhibition at 25 µg/mL: read-out: DIZ
Staphylococcus aureus [27] = assay: Antibacterial activity against methicillin resistant Staphylococcus aureus MRSA090 at 100 ug/ml after 24 hrs by agar well diffusion method; details: for zone of inhibition at 100 µg/mL: MRSA090, 24 h, read-out: DIZ
Klebsiella pneumoniae [28] = assay: Antibacterial activity against Klebsiella pneumoniae at 100 ug/ml after 24 hrs by agar well diffusion method; details: for zone of inhibition at 100 µg/mL: read-out: DIZ
Fusarium verticillioides [29] = assay: Antifungal activity against Fusarium moniliforme at 75 ug/ml after 48 hrs by agar well diffusion method; details: for zone of inhibition at 75 µg/mL: read-out: DIZ
Fusarium verticillioides [30] = assay: Antifungal activity against Fusarium moniliforme at 50 ug/ml after 48 hrs by agar well diffusion method; details: for zone of inhibition at 50 µg/mL: read-out: DIZ
Escherichia coli [31] = assay: Antibacterial activity against Escherichia coli at 100 ug/ml after 24 hrs by agar well diffusion method; details: for zone of inhibition at 100 µg/mL: read-out: DIZ
Staphylococcus aureus [32] = assay: Antibacterial activity against Staphylococcus aureus at 50 ug/ml after 24 hrs by agar well diffusion method

Structure (SMILES) | zone of inhibition at 75 µg/mL (Staphylococcus aureus [1]) | zone of inhibition at 50 µg/mL (Staphylococcus aureus [2]) | zone of inhibition at 75 µg/mL (Klebsiella pneumoniae [4]) | diameter of the inhibition zone (DIZ) (Bacillus subtilis [5]) | diameter of the inhibition zone (DIZ) (Aspergillus niger [6]) | zone of inhibition at 25 µg/mL (Staphylococcus aureus [7]) | diameter of the inhibition zone (DIZ) (Aspergillus niger [8]) | diameter of the inhibition zone (DIZ) (Staphylococcus aureus [9]) | diameter of the inhibition zone (DIZ) (Bacillus subtilis [13]) | diameter of the inhibition zone (DIZ) (Aspergillus niger [14]) | diameter of the inhibition zone (DIZ) (Bacillus subtilis [15]) | diameter of the inhibition zone (DIZ) (Staphylococcus aureus [16]) | diameter of the inhibition zone (DIZ) (Fusarium oxysporum [17]) | diameter of the inhibition zone (DIZ) (Bacillus subtilis [20]) | diameter of the inhibition zone (DIZ) (Fusarium oxysporum [22]) | diameter of the inhibition zone (DIZ) (Staphylococcus aureus [23]) | diameter of the inhibition zone (DIZ) (Aspergillus niger [24]) | zone of inhibition at 100 µg/mL (Staphylococcus aureus [27]) | zone of inhibition at 100 µg/mL (Klebsiella pneumoniae [28]) | diameter of the inhibition zone (DIZ) (Staphylococcus aureus [32]) | other results
Cc1cccc2nc(N/N=C/c3ccc[nH]3)sc12 | 11 mm | 8 mm | 19 mm | inactive | inactive | 4 mm | inactive | inactive | inactive | inactive | inactive | inactive | inactive | inactive | inactive | inactive | inactive | 17 mm | 23 mm | inactive | zone of inhibition at 100 µg/mL (Fusarium verticillioides [3]): 18 mm; zone of inhibition at 75 µg/mL (Fusarium oxysporum [10]): 10 mm; zone of inhibition at 25 µg/mL (Klebsiella pneumoniae [11]): 10 mm; zone of inhibition at 75 µg/mL (Escherichia coli [12]): 22 mm; zone of inhibition at 50 µg/mL (Escherichia coli [18]): 17 mm; zone of inhibition at 50 µg/mL (Klebsiella pneumoniae [19]): 14 mm; zone of inhibition at 100 µg/mL (Fusarium oxysporum [21]): 15 mm; zone of inhibition at 25 µg/mL (Escherichia coli [25]): 12 mm; zone of inhibition at 25 µg/mL (Fusarium verticillioides [26]): 4 mm; zone of inhibition at 75 µg/mL (Fusarium verticillioides [29]): 14 mm; zone of inhibition at 50 µg/mL (Fusarium verticillioides [30]): 9 mm; zone of inhibition at 100 µg/mL (Escherichia coli [31]): 24 mm
CC/C=N/Nc1nc2cccc(C)c2s1 | – | – | – | inactive | inactive | – | inactive | inactive | inactive | inactive | inactive | inactive | inactive | inactive | inactive | inactive | inactive | – | – | inactive | diameter of the inhibition zone (DIZ) (Staphylococcus aureus [1]): inactive; diameter of the inhibition zone (DIZ) (Staphylococcus aureus [2]): inactive; diameter of the inhibition zone (DIZ) (Fusarium verticillioides [3]): inactive; diameter of the inhibition zone (DIZ) (Klebsiella pneumoniae [4]): inactive; diameter of the inhibition zone (DIZ) (Staphylococcus aureus [7]): inactive; diameter of the inhibition zone (DIZ) (Fusarium oxysporum [10]): inactive; diameter of the inhibition zone (DIZ) (Klebsiella pneumoniae [11]): inactive; diameter of the inhibition zone (DIZ) (Escherichia coli [12]): inactive; diameter of the inhibition zone (DIZ) (Escherichia coli [18]): inactive; diameter of the inhibition zone (DIZ) (Klebsiella pneumoniae [19]): inactive; diameter of the inhibition zone (DIZ) (Fusarium oxysporum [21]): inactive; diameter of the inhibition zone (DIZ) (Escherichia coli [25]): inactive; diameter of the inhibition zone (DIZ) (Fusarium verticillioides [26]): inactive; diameter of the inhibition zone (DIZ) (Staphylococcus aureus [27]): inactive; diameter of the inhibition zone (DIZ) (Klebsiella pneumoniae [28]): inactive; diameter of the inhibition zone (DIZ) (Fusarium verticillioides [29]): inactive; diameter of the inhibition zone (DIZ) (Fusarium verticillioides [30]): inactive; diameter of the inhibition zone (DIZ) (Escherichia coli [31]): inactive
COc1cc(/C=N/Nc2nc3cccc(C)c3s2)ccc1OCc1ccccc1 | 12 mm | 10 mm | 14 mm | inactive | inactive | 5 mm | inactive | – | inactive | inactive | inactive | – | inactive | inactive | – | – | inactive | 14 mm | 17 mm | – | zone of inhibition at 100 µg/mL (Fusarium verticillioides [3]): 20 mm; zone of inhibition at 100 µg/mL (Staphylococcus aureus [9]; read-out: DIZ): 18 mm; zone of inhibition at 75 µg/mL (Fusarium oxysporum [10]): 9 mm; zone of inhibition at 25 µg/mL (Klebsiella pneumoniae [11]): 7 mm; diameter of the inhibition zone (DIZ) (Escherichia coli [12]): inactive; zone of inhibition at 25 µg/mL (Staphylococcus aureus [16]; read-out: DIZ): 7 mm; diameter of the inhibition zone (DIZ) (Escherichia coli [18]): inactive; zone of inhibition at 50 µg/mL (Klebsiella pneumoniae [19]): 12 mm; zone of inhibition at 100 µg/mL (Fusarium oxysporum [21]): 14 mm; zone of inhibition at 50 µg/mL (Fusarium oxysporum [22]; read-out: DIZ): 5 mm; zone of inhibition at 75 µg/mL (Staphylococcus aureus [23]; read-out: DIZ): 14 mm; diameter of the inhibition zone (DIZ) (Escherichia coli [25]): inactive; zone of inhibition at 25 µg/mL (Fusarium verticillioides [26]): 4 mm; zone of inhibition at 75 µg/mL (Fusarium verticillioides [29]): 15 mm; zone of inhibition at 50 µg/mL (Fusarium verticillioides [30]): 9 mm; diameter of the inhibition zone (DIZ) (Escherichia coli [31]): inactive; zone of inhibition at 50 µg/mL (Staphylococcus aureus [32]; read-out: DIZ): 11 mm
Cc1cccc2nc(N/N=C/c3ccc(O)cc3Br)sc12 | 14 mm | 11 mm | 11 mm | – | inactive | 7 mm | inactive | inactive | – | inactive | – | inactive | inactive | – | inactive | inactive | inactive | 17 mm | 14 mm | inactive | diameter of the inhibition zone (DIZ) (Fusarium verticillioides [3]): inactive; zone of inhibition at 75 µg/mL (Bacillus subtilis [5]; read-out: DIZ): 13 mm; diameter of the inhibition zone (DIZ) (Fusarium oxysporum [10]): inactive; diameter of the inhibition zone (DIZ) (Klebsiella pneumoniae [11]): inactive; zone of inhibition at 75 µg/mL (Escherichia coli [12]): 11 mm; zone of inhibition at 50 µg/mL (Bacillus subtilis [13]; read-out: DIZ): 11 mm; zone of inhibition at 100 µg/mL (Bacillus subtilis [15]; read-out: DIZ): 15 mm; zone of inhibition at 50 µg/mL (Escherichia coli [18]): 9 mm; diameter of the inhibition zone (DIZ) (Klebsiella pneumoniae [19]): inactive; zone of inhibition at 25 µg/mL (Bacillus subtilis [20]; read-out: DIZ): 7 mm; diameter of the inhibition zone (DIZ) (Fusarium oxysporum [21]): inactive; zone of inhibition at 25 µg/mL (Escherichia coli [25]): 6 mm; diameter of the inhibition zone (DIZ) (Fusarium verticillioides [26]): inactive; diameter of the inhibition zone (DIZ) (Fusarium verticillioides [29]): inactive; diameter of the inhibition zone (DIZ) (Fusarium verticillioides [30]): inactive; zone of inhibition at 100 µg/mL (Escherichia coli [31]): 16 mm
